Data on two molecules can be found in ChEMBL document CHEMBL1150190, “Lyngbyatoxins B and C, two new irritants from Lyngbya majuscula” (J Nat Prod, 1990).

The nature of data set [1]: Displacement of [3H]12-O-tetradecanoyl-phorbol-13-acetate from TPA receptor. On the technique in general: In a radioligand displacement assay an active substance lowers the binding of a labelled ligand.
Another data set is filed under the species Mus musculus. In words: Toxicity in mouse by ear irritant test. The format is organism-based. The conditions noted are these: in vivo.

Molecule `C=C[C@@](C)(C/C=C/C(C)(C)O)c1ccc2c3c(c[nH]c13)C[C@@H](CO)NC(=O)[C@H](C(C)C)N2C` [LYNGBYATOXIN C] showed an ED50 in data set [1] of 200 nM. In addition, the Activity entry in the data set filed under Mus musculus is recorded as “Toxic”.
On to `C=C[C@@](C)(CCC(O)C(=C)C)c1ccc2c3c(c[nH]c13)C[C@@H](CO)NC(=O)[C@H](C(C)C)N2C` (some centres undefined) [LYNGBYATOXI B], for which, in data set [1], the ED50 was found to be 2200 nM. The Activity result in the data set filed under Mus musculus is reported as “Toxic”.
